Laboratory results published in PubChem BioAssay (NCI).
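Growth conditions: 96-well plates. Treatment: test compound, 48 hours, 5 concentrations. Analysis: linear interpolation between bracketing concentrations; unreached endpoints set to highest concentration. GI50 is the concentration that inhibits growth by half. The concentration for full growth arrest is given as TGI.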

Columns and labels:
Test in all cases: NCI tumour cell line growth inhibition, 48 h
[1] = system: PC-3 prostate
[2] = system: TK-10 renal
[3] = system: SF-539 CNS
[4] = system: SN12C renal
[5] = system: BT-549 breast
[6] = system: SK-MEL-5 melanoma
[7] = system: OVCAR-5 ovarian
[8] = system: SNB-19 CNS
[9] = system: NCI-H226 lung
[10] = system: MALME-3M melanoma

CN=C1OC2(c3ccccc3)C3=C(OC(=NC)N2C)C(=O)OC3(c2ccccc2)N1C (configuration not stated)
TGI [1]: > 100 µM | TGI [2]: > 100 µM | TGI [3]: > 100 µM | TGI [4]: > 100 µM | TGI [5]: > 100 µM | TGI [6]: > 100 µM | TGI [7]: > 100 µM | TGI [8]: > 100 µM | TGI [9]: > 100 µM

O=C(/C=C/c1ccc(Cl)c(Cl)c1)c1cccc2ccccc12
TGI [2]: 30.5 µM | TGI [10]: 32.4 µM | TGI [3]: 7.14 µM | TGI [4]: 31.8 µM | TGI [6]: 34.7 µM | TGI [7]: 26.9 µM | TGI [8]: 19.4 µM | TGI [9]: 28.3 µM

O=C1C=C(O)C(=Cc2c(O)cc(O)cc2O)C(O)=C1
TGI [2]: > 100 µM | TGI [10]: > 100 µM | TGI [3]: > 100 µM | TGI [4]: > 100 µM | TGI [6]: > 100 µM | TGI [7]: > 100 µM | TGI [8]: > 100 µM | TGI [9]: > 100 µM

COc1cc2ncc3c(nc4sccn43)c2cc1OC
GI50 [1]: 47.9 µM | TGI [1]: > 100 µM | GI50 [2]: 11.1 µM | TGI [2]: 29.5 µM | GI50 [10]: 5.86 µM | TGI [10]: 32.6 µM | GI50 [3]: 15.6 µM | TGI [3]: 55.2 µM | GI50 [4]: 22.5 µM | TGI [4]: 89.3 µM | GI50 [5]: 37.1 µM | TGI [5]: > 100 µM | GI50 [6]: 48.4 µM | TGI [6]: > 100 µM | GI50 [7]: 26.8 µM | TGI [7]: 60.5 µM | GI50 [8]: 47.2 µM | TGI [8]: > 100 µM

Cc1ccc(NC(=O)C(=O)C(C(=O)/C=C/c2ccccc2)C2OC(=O)c3ccccc32)c(C)c1 (configuration not stated)
TGI [2]: > 100 µM | TGI [10]: > 100 µM | TGI [3]: > 100 µM | TGI [4]: > 100 µM | TGI [6]: > 100 µM | TGI [7]: > 100 µM | TGI [8]: > 100 µM | TGI [9]: > 100 µM

CC1=NN(c2ccccc2)C(=O)/C1=C\c1ccc([N+](=O)[O-])cc1
TGI [2]: > 100 µM | TGI [10]: 69.3 µM | TGI [3]: 45.2 µM | TGI [4]: > 100 µM | TGI [6]: 54.5 µM | TGI [7]: 50.8 µM | TGI [8]: > 100 µM

N[C@H](COCc1ccccc1)c1ccccc1
TGI [2]: > 100 µM | TGI [10]: > 93.6 µM | TGI [3]: 75.1 µM | TGI [4]: > 81.6 µM | TGI [6]: 44.8 µM | TGI [7]: 87.2 µM | TGI [8]: > 89.7 µM | TGI [9]: 77.5 µM

N#CCCNc1nonc1-c1nc2ccccc2n1CC(=O)c1ccc(NC(=O)[C@@H](N)CCCCN)cc1
GI50 [1]: 0.046 µM | TGI [1]: > 100 µM | GI50 [2]: 11.9 µM | TGI [2]: > 100 µM | GI50 [10]: > 100 µM | TGI [10]: > 100 µM | GI50 [4]: 0.0498 µM | TGI [4]: > 100 µM | GI50 [5]: 0.0311 µM | GI50 [6]: 0.03 µM | TGI [6]: 0.197 µM | GI50 [7]: 0.0644 µM | TGI [7]: > 100 µM | GI50 [8]: > 100 µM | TGI [8]: > 100 µM | TGI [9]: > 100 µM

Cc1ccccc1-n1c(N)c(-c2nc3ccccc3[nH]2)sc1=S
TGI [2]: 85.8 µM | TGI [10]: 45.1 µM | TGI [3]: 41.1 µM | TGI [4]: 56.9 µM | TGI [6]: 36.6 µM | TGI [7]: > 100 µM | TGI [8]: 66.4 µM | TGI [9]: 74.4 µM

NC1=NC(=O)C(CC(=O)Nc2ccc(Cl)cc2Cl)S1 (configuration not stated)
TGI [2]: > 100 µM | TGI [10]: > 100 µM | TGI [3]: > 100 µM | TGI [4]: > 100 µM | TGI [6]: > 100 µM | TGI [7]: > 100 µM | TGI [8]: > 100 µM

CCC(=O)Nc1ccc(N2C(=O)/C(=C/c3ccc(OC)cc3)N=C2c2ccccc2)cc1
GI50 [1]: 13.5 µM | TGI [1]: > 50 µM | GI50 [2]: 22.8 µM | TGI [2]: > 50 µM | GI50 [3]: 5.49 µM | TGI [3]: 16 µM | GI50 [4]: 5.46 µM | TGI [4]: 15.3 µM | GI50 [5]: 10.9 µM | TGI [5]: 36.4 µM | GI50 [6]: 7.16 µM | TGI [6]: > 50 µM | GI50 [7]: > 50 µM | TGI [7]: > 50 µM | GI50 [8]: 14.1 µM | TGI [8]: > 50 µM | GI50 [9]: 8.93 µM | TGI [9]: 33.7 µM

O=Cc1ccc2c(c1I)OCO2
TGI [2]: > 100 µM | TGI [10]: > 100 µM | TGI [3]: > 100 µM | TGI [4]: > 100 µM | TGI [6]: > 100 µM | TGI [7]: > 100 µM | TGI [8]: > 100 µM | TGI [9]: > 100 µM

CC(=O)/C(=C\c1ccccc1O)C(=O)Nc1ccccc1C
TGI [10]: 47.7 µM | TGI [3]: 42.2 µM | TGI [6]: 27.9 µM | TGI [7]: 37.1 µM | TGI [8]: 54.3 µM | TGI [9]: 62.4 µM

O=C(O)c1ccccc1NC(=S)c1ccccc1
TGI [1]: > 100 µM | TGI [2]: > 100 µM | TGI [10]: 65.9 µM | TGI [3]: > 100 µM | TGI [4]: > 100 µM | TGI [5]: > 100 µM | TGI [6]: > 100 µM | TGI [7]: > 100 µM | TGI [8]: > 100 µM

N#CNc1nc(N)c(-c2ccc(Cl)cc2)c(C(=O)Nc2nccs2)n1
TGI [2]: > 100 µM | TGI [10]: > 100 µM | TGI [3]: > 100 µM | TGI [4]: > 100 µM | TGI [6]: > 100 µM | TGI [7]: > 100 µM | TGI [8]: > 100 µM | TGI [9]: > 100 µM

Fc1ccc(/C=N/n2c(-c3ccc(F)c(Cl)c3)n[nH]c2=S)cc1
GI50 [1]: 27.3 µM | TGI [1]: > 100 µM | GI50 [2]: 24.1 µM | TGI [2]: 51 µM | GI50 [10]: 18.3 µM | TGI [10]: 60.2 µM | GI50 [3]: 32 µM | TGI [3]: > 100 µM | GI50 [5]: 78.5 µM | TGI [5]: > 100 µM | GI50 [6]: 42.9 µM | TGI [6]: > 100 µM | GI50 [7]: 21.8 µM | TGI [7]: 48.3 µM | GI50 [8]: 22.5 µM | TGI [8]: 44.1 µM | GI50 [9]: 36.5 µM | TGI [9]: 83.8 µM

c1cc(-c2cn3c(n2)SCC3)ccn1
TGI [2]: > 100 µM | TGI [10]: > 100 µM | TGI [3]: > 65.2 µM | TGI [4]: > 100 µM | TGI [6]: > 100 µM | TGI [7]: > 100 µM | TGI [8]: > 100 µM | TGI [9]: > 100 µM

O=C(O)CCNS(=O)(=O)c1ccc([N+](=O)[O-])cc1
TGI [2]: > 100 µM | TGI [10]: > 100 µM | TGI [3]: > 100 µM | TGI [4]: > 100 µM | TGI [6]: > 100 µM | TGI [7]: > 100 µM | TGI [8]: > 100 µM | TGI [9]: > 100 µM

N#CC1(C#N)C(c2ccccc2)C=CC12OCCCO2 (configuration not stated)
TGI [2]: > 100 µM | TGI [10]: > 100 µM | TGI [3]: 45.9 µM | TGI [4]: > 100 µM | TGI [6]: > 100 µM | TGI [7]: > 100 µM | TGI [8]: > 100 µM | TGI [9]: > 100 µM

CCOc1ccc(NC(=O)CCc2nnc(SC)o2)cc1
TGI [2]: > 100 µM | TGI [10]: > 100 µM | TGI [3]: > 100 µM | TGI [4]: > 100 µM | TGI [6]: > 100 µM | TGI [7]: > 100 µM | TGI [8]: > 100 µM | TGI [9]: > 100 µM

ClC1=C(Cl)C(Cl)(Cl)c2c3c(c4c(c21)C(Cl)(Cl)C(Cl)=C4Cl)C(Cl)(Cl)C(Cl)=C3Cl
TGI [10]: > 100 µM | TGI [3]: > 100 µM | TGI [4]: > 100 µM | TGI [6]: > 100 µM | TGI [8]: > 100 µM | TGI [9]: > 100 µM
